Data: patent US9463338B2, “Derivatives of the sinapinic acid” (PHARMASYNTHESE, priority 2013, dated 2016)
“And” between values parts separate entries of the source, which are not always exact repeats. Equal values may be shown once. Marks after values point to notes of the source that are not given here.

What was measured:
[1] = system: explants of adipose tissues; experiment: Slimming effect: glycerol released in culture medium of adipose tissue explants; assay type: cell-based, human; conditions: for Glycerol Average: glycerol released in culture medium after 9 days, 100 μl of 2% product in DMSO in 2 ml medium on J0, J2, J3, J5, J7, 3 explants
Experimental: The activity of the compounds of the invention on the adipocytes has been assessed. To do so, tests have been carried out on explants of adipose tissues that are kept alive according to the following experimental protocol. The products to be tested are introduced in the culture medium. After 9 days of treatment, the activity is assessed through an assay of the glycerol released in the culture medium. In order to be able to compare the potential activity of the molecules, caffeine (Sigma ref C-0750 batch 127F0396), which is known for its activity on the adipocytes (Studlar M. […] The explants are prepared from a tummy tuck ([…]-AB-40) carried out on a donor. 54 explants of tissues have been prepared and kept alive in a medium which is supplemented with penicillin/streptomycin antibiotics (Gibco ref 15140 batch 918578) at 37° C. and with 5% of CO2. The treatment has been carried out, on 3 explants, by incorporating 100 μl of the product (which is in turn at a 2% concentration in the adequate solvent, DMSO) in 2 ml of the culture medium on days J0, J2, J3, J5 and J7. Caffeine has been diluted to the desired concentration in the culture medium on these same days. The control explants have undergone no treatment. On J0, the 3 explants have been collected and frozen at -80° C. On J9, the remaining explants have been collected and preserved under the same conditions. The extraction of lipids from the culture medium has been carried out according to a tested procedure. The assay of the glycerol of the culture medium has been carried out using a glycerol assay kit (Megazyme, K-GROL) in the form of 96-well microplates and reading has been made at 340 nm with a Tecam Infinite M200 microplate reader associated to the Magellan software.

[2] = system: normal human dermal fibroblasts; experiment: Production of progerin in monolayer cultures of normal human dermal fibroblasts (ELISA); assay type: cell-based; conditions: for Progerin % DMSO / Progerin Average / Progerin, individual values / Progerin Difference (%): 96 hours; for Progerin Difference (%): vs DMSO; for neo synthesis of progerin: under the retained experimental conditions
Excerpt: In order to study the influence of the compounds of the invention on the concentration of progerin in the cells, the assay method described by C. Verdy, J.-E. Branka and N. Mekideche in <<Quantitative assessment of lactate and progerine production in normal human cutaneous cells during normal ageing: effect of an alaria esculenta extract>>, Int. J. Cosmetic Science, 2011, 1-5, has been used.
(§1) The test system consists of monolayers of adult normal human dermal fibroblasts obtained by cultivating cells collected from a tummy tuck carried out on a person.
Insulin at 10 nM has been used as a reference product in this study. […]
(§2) The compound to be tested is solubilized in 1 mg/ml in DMSO, then diluted in the cells incubation medium, with a constant concentration of 0.1% (v/v) in DMSO.
Upon completion of the incubation period, on the one hand, the progerin has been quantified in the cellular lysates (obtained by ultrasonic action) through a sensitive and specific ELISA assay, and on the other hand, the proteins that are contained in the cellular lysates have been quantified by a spectrophotometric method (Bradford method—Bradford M. (1976) Anal. Biochem., 72, 248-254).
(§3) The statistical significance of the differences that have been observed between the <<Control>> and the <<reference product>> conditions, has been assessed through a Student test. The statistical significance of the differences that have been observed between the <<Check>> and the <<test products>> conditions, has been assessed through a one-way analysis of variance (One Way ANOVA) followed by a Holm-Sidak test (*:p<0.05).

[3] = system: normal human dermal fibroblasts; experiment: Production of type I pro-collagen in monolayer cultures of normal human dermal fibroblasts (E.I.A.); assay type: cell-based; conditions: 48 hours; for Procollagen Difference (%): vs DMSO
Experimental: as §1
The used reference activator is the Transforming Growth Factor β (TGF-β) at 1 ng/ml. […]
as §2
Upon completion of the incubation period, the type I pro-collagen contained in the fibroblasts incubation media has been quantified using a sensitive and specific E.I.A. kit.
Upon completion of the incubation period, the proteins contained in the cellular lysates have been quantified by a spectrophotometric method (Bradford method—Bradford M. (1976) Anal. Biochem., 72, 248-254).
as §3
The results are given in the form of μg of type I pro-collagen per mg of protein (average+/− the standard deviation, S.D.) and are reported in the following Table 5.

normal human melanocytes = experiment: Melanin production of normal human melanocytes (conditioned fibroblast media); assay type: cell-based; conditions: for Melanin/Proteins Difference (%): vs DMSO 0.01%
Excerpt: These experiments allowed to show the capability of the compounds of the invention to modulate the melanin production of normal human melanocytes cultivated in D.K.K. fibroblast monolayers.
Monolayers of normal human dermal fibroblasts have been obtained by cultivating cells collected from a tummy tuck carried out on a person. For carrying out the tests, these cells have been cultivated until obtaining confluent monolayers. Monolayers of normal human melanocytes have been obtained by cultivating cells collected from a tummy tuck carried out on a person. For carrying out the tests, these cells have been cultivated until obtaining non-confluent monolayers. […]
Afterwards, the melanocytes have been incubated for 72 hours at 37° C. in a humid atmosphere with 5% of CO2, in the absence (culture medium alone) or in the presence of kojic acid at 250 μM or of conditioned fibroblast media (see above) diluted to 1/10th in the culture medium of the melanocytes.
The active ingredient has been solubilized in DMSO (Dimethyl Sulfoxide). Afterwards, the dilutions have been carried out in the cells incubation medium with a constant concentration of 0.01% (v/v) of DMSO.
Upon completion of the incubation period, the intracellular melanin content has been quantified in the melanocytic lysates by a spectrophotometric measurement at 405 nm.
Upon completion of the incubation period, the proteins contained in the cellular lysates have been quantified by a spectrophotometric method (Bradford method).
The results are given in the form of μg of intracellular melanin per mg of total proteins of the cellular layer (averages+/− the standard deviation, S.D.).
The statistical significance of the differences observed between the <<Control>> and the <<test product>> conditions, has been assessed through a one-way analysis of variance (One Way ANOVA) followed by a Holm-Sidak test (*:p<0.05).

[4] = 10 ng/ml, conditioned fibroblast medium, melanocytes 72 hours
[5] = 50 ng/ml, conditioned fibroblast medium, melanocytes 72 hours
[6] = 100 ng/ml, conditioned fibroblast medium, melanocytes 72 hours

## Cn1c(=O)c2c(ncn2C)n(C)c1=O [Caffeine, caffeine, reference compound]
[1]; after 9 days of treatment
  Glycerol % in comparison with caffeine: 100%
[1]
  Glycerol Average: 0.096 mg/mL

## COc1cc(/C=C/C(=O)OCCc2ccc(OC(C)=O)cc2)cc(OC)c1OC(C)=O [Compound 1, 4-acetoxy-3,5-dimethoxy cinnamate of 2-(4-acetoxyphenyl)-ethyl]
other
  melting point: 132 °C

## COc1cc(/C=C/C(=O)Nc2ccccc2)cc(OC)c1OC(C)=O [Compound 19, 4-acetoxy-3,5-dimethoxy-N-(phenyl)-cinnamamide]
other
  melting point: 100 °C

## COc1cc(/C=C/C(=O)Oc2ccc(CCO)cc2)cc(OC)c1OC(C)=O [Compound 2]
[2]; 10 ng/ml
  Progerin % DMSO: 25.8%
  Progerin Average: 286.9* ng/mg of protein
  Progerin, individual values: 233.7 ng/mg of protein and 353.5 ng/mg of protein and 273.6 ng/mg of protein
  Progerin Difference (%): −74.2%
[2]; 100 ng/ml
  Progerin % DMSO: 23.1%
  Progerin Average: 256.4* ng/mg of protein
  Progerin, individual values: 170.6 ng/mg of protein and 196.3 ng/mg of protein and 402.4 ng/mg of protein
  Progerin Difference (%): −76.9%
[2]; 500 ng/ml
  Progerin % DMSO: 26.4%
  Progerin Average: 293* ng/mg of protein
  Progerin, individual values: 300.1 ng/mg of protein and 328.4 ng/mg of protein and 250.5 ng/mg of protein
  Progerin Difference (%): −73.6%
[2]
  neo synthesis of progerin: significantly decrease

## COc1cc(/C=C/C(=O)Oc2coc(CO)cc2=O)cc(OC)c1OC(C)=O [Compound 10]
[2]; 50 ng/ml
  Progerin % DMSO: 23.8%
  Progerin Average: 264.1* ng/mg of protein
  Progerin, individual values: 274.9 ng/mg of protein and 225.1 ng/mg of protein and 292.3 ng/mg of protein
  Progerin Difference (%): −76.2%
[2]; 500 ng/ml
  Progerin % DMSO: 26.1%
  Progerin Average: 289.6* ng/mg of protein
  Progerin, individual values: 301.7 ng/mg of protein and 296.1 ng/mg of protein and 271.0 ng/mg of protein
  Progerin Difference (%): −73.9%
[2]; 5000 ng/ml
  Progerin % DMSO: 26.2%
  Progerin Average: 291.4* ng/mg of protein
  Progerin, individual values: 261.2 ng/mg of protein and 245.9 ng/mg of protein and 366.9 ng/mg of protein
  Progerin Difference (%): −73.8%
[2]
  neo synthesis of progerin: significantly decrease
[3]; 10 ng/ml
  Procollagen % DMSO: 104.6%
  Procollagen Average: 54.9 pg/mg of protein
  Procollagen, individual values: 45.6 pg/mg of protein and 48.7 pg/mg of protein and 70.3 pg/mg of protein
  Procollagen Difference (%): 4.6%
[3]; 100 ng/ml
  Procollagen % DMSO: 150.2%
  Procollagen Average: 78.8* pg/mg of protein
  Procollagen, individual values: 74.0 pg/mg of protein and 75.9 pg/mg of protein and 86.4 pg/mg of protein
  Procollagen Difference (%): 50.2%
[3]; 500 ng/ml
  Procollagen % DMSO: 175.3%
  Procollagen Average: 91.9* pg/mg of protein
  Procollagen, individual values: 90.6 pg/mg of protein and 95.4 pg/mg of protein and 89.8 pg/mg of protein
  Procollagen Difference (%): 75.3%

## COc1cc(COC(=O)/C=C/c2cc(OC)c(OC(C)=O)c(OC)c2)cc(OC)c1OC [Compound 5]
[1]; after 9 days of treatment
  Glycerol % in comparison with caffeine: 82%
  slimming activity in comparison with caffeine: enhanced slimming activity
[1]
  Glycerol Average: 0.083 mg/mL
[2]; 10 ng/ml
  Progerin % DMSO: 27.6%
  Progerin Average: 306.4* ng/mg of protein
  Progerin, individual values: 284.0 ng/mg of protein and 243.7 ng/mg of protein and 391.4 ng/mg of protein
  Progerin Difference (%): −72.4%
[2]; 100 ng/ml
  Progerin % DMSO: 29.1%
  Progerin Average: 322.9* ng/mg of protein
  Progerin, individual values: 206.0 ng/mg of protein and 364.1 ng/mg of protein and 398.6 ng/mg of protein
  Progerin Difference (%): −70.9%
[2]; 500 ng/ml
  Progerin % DMSO: 77.9%
  Progerin Average: 865.0 ng/mg of protein
  Progerin, individual values: 916.2 ng/mg of protein and 1021.7 ng/mg of protein and 657.0 ng/mg of protein
  Progerin Difference (%): −22.1%
[2]
  neo synthesis of progerin: significantly decrease
Normal human melanocytes
  synthesis of melanin in the melanocytes: significantly decrease
Normal human melanocytes; 10 ng/ml on fibroblasts 48 hours, conditioned medium 1/10th on melanocytes 72 hours
  Melanin/Proteins, individual values: 14.2 µg/mg and 11.7 µg/mg and 13.7 µg/mg
Normal human melanocytes; [4]
  Melanin/Proteins % DMSO: 83.0%
  Melanin/Proteins Average: 14.3* μg/mg
Normal human melanocytes; 10 ng/ml
  Melanin/Proteins Difference (%): −17.0%
Normal human melanocytes; 50 ng/ml on fibroblasts 48 hours, conditioned medium 1/10th on melanocytes 72 hours
  Melanin/Proteins, individual values: 14.3 μg/mg and 14.7 μg/mg (2×)
Normal human melanocytes; [5]
  Melanin/Proteins % DMSO: 83.6%
  Melanin/Proteins Average: 14.4* μg/mg
Normal human melanocytes; 50 ng/ml
  Melanin/Proteins Difference (%): −16.4%
Normal human melanocytes; 100 ng/ml on fibroblasts 48 hours, conditioned medium 1/10th on melanocytes 72 hours
  Melanin/Proteins, individual values: 15.8 µg/mg and 16.7 µg/mg and 16.0 µg/mg
Normal human melanocytes; [6]
  Melanin/Proteins % DMSO: 93.7%
  Melanin/Proteins Average: 16.2 µg/mg
Normal human melanocytes; 100 ng/ml
  Melanin/Proteins Difference (%): −6.3%
[3]; 10 ng/ml
  Procollagen % DMSO: 75.7%
  Procollagen Average: 39.7* pg/mg of protein
  Procollagen, individual values: 45.3 pg/mg of protein and 37.0 pg/mg of protein and 36.8 pg/mg of protein
  Procollagen Difference (%): −24.3%
[3]; 100 ng/ml
  Procollagen % DMSO: 96.3%
  Procollagen Average: 50.5 pg/mg of protein
  Procollagen, individual values: 53.0 pg/mg of protein and 52.3 pg/mg of protein and 46.3 pg/mg of protein
  Procollagen Difference (%): −3.7%
[3]; 500 ng/ml
  Procollagen % DMSO: 126.9%
  Procollagen Average: 66.6* pg/mg of protein
  Procollagen, individual values: 66.1 pg/mg of protein and 62.3 pg/mg of protein and 71.4 pg/mg of protein
  Procollagen Difference (%): 26.9%

## O=c1cc(CO)occ1O [Kojic acid, kojic acid, reference compound]
Normal human melanocytes; 250 μM, melanocytes 72 hours
  Melanin/Proteins % control: 86.6* %
  Melanin/Proteins Average: 14.0 µg/mg
  Melanin/Proteins, individual values: 14.3 µg/mg and 13.4 µg/mg and 14.1 µg/mg
